Article PMC11277018, “Recombinant Expression and Characterization of a Novel Thermo-Alkaline Lipase with Increased Solvent Stability from the Antarctic Thermophilic Bacterium Geobacillus sp. ID17” (International Journal of Molecular Sciences, 2024)
Read-outs that look alike come from different tables or passages of the source. One block for each compound: values may come before it.

Test system: T1, Lip7
T1 construct: theoretical 43 kDa, 47 kDa by SEC, 37 kDa by SDS-PAGE; monomer
Experiment: spectrophotometric p-nitrophenol release, allosteric sigmoidal fit
Assay type: biochemical, Geobacillus sp. ID17
Details: 25 °C, pH 8.0, 50 mM potassium phosphate, read-out: K1/2
Text: spectrophotometric p-nitrophenol release, allosteric sigmoidal fit on Lip7

Km (2% (v/v) Triton X-100 (mixed micelles; interfacial), Hill n 1.8 ± 0.4): 1700 ± 400 µM
Structure (SMILES): CCCCCCCCCCCC(=O)Oc1ccc([N+](=O)[O-])cc1 [p-nitrophenyl laurate]

Km (2% (v/v) Triton X-100, Hill n 1.9 ± 0.5): 3400 ± 700 µM
Structure (SMILES): CC(=O)Oc1ccc([N+](=O)[O-])cc1 [p-nitrophenyl acetate]

Km (2% (v/v) Triton X-100, Hill n 2.4 ± 0.8): 1600 ± 300 µM
Structure (SMILES): CCCCCCCC(=O)Oc1ccc([N+](=O)[O-])cc1 [p-nitrophenyl octanoate]

Km (2% (v/v) Triton X-100, Hill n 3.1 ± 1.4): 2200 ± 300 µM
Structure (SMILES): CCCCCCCCCC(=O)Oc1ccc([N+](=O)[O-])cc1 [p-nitrophenyl decanoate]

Km (2% (v/v) Triton X-100, Hill n 3.2 ± 0.6): 1400 ± 100 µM
Structure (SMILES): CCCCCCCCCCCCCC(=O)Oc1ccc([N+](=O)[O-])cc1 [p-nitrophenyl myristate]
